Data reported in patent publication US20250312469A1 (CANGET BIOTEKPHARMA, priority 2024, published 2025).

Molecular target: T1, USP2a (Homo sapiens, UniProt O75604)
T1 sequence (O75604 1-605): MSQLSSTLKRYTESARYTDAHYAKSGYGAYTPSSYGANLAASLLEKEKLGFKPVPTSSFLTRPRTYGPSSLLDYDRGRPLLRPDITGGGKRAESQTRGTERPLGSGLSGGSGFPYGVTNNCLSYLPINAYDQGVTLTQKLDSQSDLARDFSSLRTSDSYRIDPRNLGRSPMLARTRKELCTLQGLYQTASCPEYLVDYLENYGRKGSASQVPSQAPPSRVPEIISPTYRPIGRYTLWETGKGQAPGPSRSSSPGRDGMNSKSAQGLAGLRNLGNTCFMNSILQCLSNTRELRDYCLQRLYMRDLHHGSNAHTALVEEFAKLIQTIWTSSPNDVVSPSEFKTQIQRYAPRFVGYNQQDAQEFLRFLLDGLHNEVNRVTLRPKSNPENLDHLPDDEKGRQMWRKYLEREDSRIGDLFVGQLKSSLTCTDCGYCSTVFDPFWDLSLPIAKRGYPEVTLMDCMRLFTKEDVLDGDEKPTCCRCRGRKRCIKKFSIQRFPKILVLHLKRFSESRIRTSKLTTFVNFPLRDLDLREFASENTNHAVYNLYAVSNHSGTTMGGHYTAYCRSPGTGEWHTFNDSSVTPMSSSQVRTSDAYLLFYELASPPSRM
Experiment: ITC, Flag-USP2a
Assay type: binding
Parameters: host or cells: HEK293T
Excerpt: Purification of Flag-tagged DDX5 (Flag-DDX5), USP2a (Flag-USP2), UbE2T (Flag-(bE2T) and topoisomerase 1 (Top1) (Flag-Top1) proteins: Flag-DDX5, Flag-USP2, Flag-UbE2T and Flag-Topl proteins were purified from the protein expression vector-transfected HEK293T cells by using the FLAG® M Purification Kit for mammalian expression systems (CELLMM2-IKT, Sigma). Briefly, sub-confluent populations of HEK293T cells were transfected with expression vectors for Flag-DDX5, Flag-USP2, Flag-UbE2T and Flag-Top1 (OriGene) using Lipofectamine 2000 (Invitrogen) as per the manufacturer's instructions. After 72h of transfection, cells were lysed in Cell Lytic M lysis reagent (Sigma Cat #C2978) containing a protease inhibitor cocktail. […]
Replacement of the Tris-HCl buffer with the PBS buffer for purified proteins for drug-protein binding analyses using isothermal titration calorimetry (ITC): After the purified proteins were eluted from the agarose resin with 3×flag peptide, the same purified protein samples from different batches were combined. […] The PBS-resuspended protein samples were recovered from the reservoir and the protein concentrations were determined using the nano-drop reader (Bio-Rad) and BCA Protein Assay (Thermo/Pierce) for double-making sure the concentration. […]

CCC1(O)C(=O)OCc2c1cc1n(c2=O)Cc2cc3cc4c(cc3nc2-1)OCO4 (stereo not shown) [FL118]
Kd: 52.3 nM
